# According to patent publication US20070293399A1, “SUBSTITUTED DIAMINO-1,3,5-TRIAZINES, PROCESSES FOR THEIR PREPARATION AND THEIR USE AS HERBICIDES AND CROP GROWTH REGULATORS” (Bayer CropScience AG, priority 2006, published 2007):
# What was measured:
# [1] = system: Stellaria media, Lolium multiflorum, Amaranthus retroflexus, Sinapis alba, Avena sativa and Setaria viridis; assay: Pre-emergence herbicidal action (greenhouse pot test); assay type: in vivo; conditions: application rate of 1 kg or less of active substance per hectare; scored visually after 3 to 4 weeks in comparison to untreated controls
# Source text: Seeds or rhizome pieces of mono- and dicotyledonous weed plants were placed in sandy loam in plastic pots and covered with soil. The inventive compounds, which have been formulated in the form of wettable powders or emulsion concentrates, were then applied to the surface of the covering soil as an aqueous suspension or emulsion in different dosages with an application rate of from 600 to 800 l/ha of water (converted).
# [2] = system: Sinapis alba, Echinochloa crus-galli, Lolium multiflorum, Stellaria media, Cyperus iria, Amaranthus retroflexus, Setaria viridis, Avena sativa, Lamium …; assay: Post-emergence herbicidal action (greenhouse pot test); assay type: in vivo; conditions: application rate of 1 kg and less of active substance per hectare; treated at three-leaf stage; scored visually after approx. 3 to 4 weeks in comparison to untreated controls
# Procedure: Seeds or rhizome pieces of mono- and dicotyledonous weeds were placed in sandy loam in plastic pots, covered with soil and grown in a greenhouse under good growth conditions. Three weeks after the sowing, the test plants were treated at the three-leaf stage. The inventive compounds formulated as spray powders or as emulsion concentrates were sprayed onto the green plant parts in various dosages with an application rate of from 600 to 800 l/ha of water (converted). After the test plants had been left to stand in the greenhouse under optimal growth conditions for approx. 3 to 4 weeks, the action of the preparations was scored visually in comparison to untreated controls. The inventive compositions also had good post-emergence herbicidal activity against a wide spectrum of economically important gramineous and broadleaf weeds.
SMILES,herbicidal action against harmful plants in the pre-emergence method [1],herbicidal action against harmful plants in the post-emergence method [2]
CCCCNC(=S)Nc1nc(N[C@H]2c3cc(C)ccc3C[C@@H]2C)nc([C@@H](C)F)n1 [Compound 2.132],very good herbicidal action,very good herbicidal action
CCNC(=S)Nc1nc(N[C@H]2c3cc(C)ccc3C[C@@H]2C)nc([C@@H](C)F)n1 [Compound 2.133],very good herbicidal action,very good herbicidal action
Cc1ccc2c(c1)[C@H](Nc1nc(NC(=S)NCCc3ccc(Cl)cc3)nc([C@@H](C)F)n1)[C@@H](C)C2 [Compound 2.134],very good herbicidal action,very good herbicidal action
Cc1ccc2c(c1)[C@H](Nc1nc(NC(=S)NCc3ccco3)nc([C@@H](C)F)n1)[C@@H](C)C2 [Compound 2.138],very good herbicidal action,very good herbicidal action
Cc1ccc2c(c1)[C@H](Nc1nc(NC(=S)NC3CCCCC3)nc([C@@H](C)F)n1)[C@@H](C)C2 [Compound 2.139],very good herbicidal action,very good herbicidal action
COc1cccc(NC(=O)Nc2nc(N[C@H]3c4cc(C)ccc4C[C@@H]3C)nc([C@@H](C)F)n2)c1 [Compound 2.140],very good herbicidal action,very good herbicidal action
CC(=O)Nc1nc(N[C@H]2c3cc(C)ccc3C[C@@H]2C)nc(C(F)F)n1 [Compound 2.149],very good herbicidal action,very good herbicidal action
CCC(=O)Nc1nc(N[C@H]2c3cc(C)ccc3C[C@@H]2C)nc(C(F)F)n1 [Compound 2.150],very good herbicidal action,very good herbicidal action
Cc1ccc2c(c1)[C@H](Nc1nc(NC(=O)C(C)(C)C)nc(C(F)F)n1)[C@@H](C)C2 [Compound 2.151],very good herbicidal action,very good herbicidal action
Cc1ccc2c(c1)[C@H](Nc1nc(N=CN(C)C)nc([C@@H](C)F)n1)[C@@H](C)C2 [Compound 2.153],very good herbicidal action,very good herbicidal action
C[C@@H](F)c1nc(N=CN(C)C)nc(N[C@@H]2CCCc3ccccc32)n1 [Compound 2.154],very good herbicidal action,very good herbicidal action
Cc1ccc2c(c1)[C@H](Nc1ncnc(N=CN(C)C)n1)[C@@H](C)C2 [Compound 2.155],very good herbicidal action,very good herbicidal action
CC(=Nc1nc(N[C@H]2c3cc(C)ccc3C[C@@H]2C)nc([C@@H](C)F)n1)N(C)C [Compound 2.156],very good herbicidal action,very good herbicidal action
"CC(=Nc1nc(N[C@@H]2CCCc3ccccc32)nc([C@@H](C)F)n1)N(C)C [Compound 2.159, N′-{4-[(1R)-1-Fluoroethyl]-6-[(1R)-1,2,3,4-tetrahydronaphth-1-ylamino]-1,3,5-triazin2-yl}-N,N-dimethylethanimide amide]",very good herbicidal action,very good herbicidal action
CC(=Nc1ncnc(N[C@H]2c3cc(C)ccc3C[C@@H]2C)n1)N(C)C [Compound 2.160],very good herbicidal action,very good herbicidal action
Cc1ccc2c(c1)[C@H](Nc1nc(C)nc(N=CN(C)C)n1)[C@@H](C)C2 [Compound 2.170],very good herbicidal action,very good herbicidal action
C[C@@H]1Cc2ccccc2[C@@H]1Nc1nc(N=CN(C)C)nc(C(F)F)n1 [Compound 2.175],very good herbicidal action,very good herbicidal action
Cc1ccc2c(c1)[C@H](Nc1nc(N=CN(C)C)nc(C(F)F)n1)[C@H](C)C2 [Compound 2.176],very good herbicidal action,very good herbicidal action
CC(=Nc1nc(N[C@H]2c3cc(C)ccc3C[C@H]2C)nc(C(F)F)n1)N(C)C [Compound 2.177],very good herbicidal action,very good herbicidal action
Cc1ccc2c(c1)[C@H](Nc1nc(N=CN3CCCCC3)nc(C(F)F)n1)[C@H](C)C2 [Compound 2.181],very good herbicidal action,very good herbicidal action
Cc1ccc2c(c1)[C@H](Nc1nc(C=O)nc(C(F)F)n1)[C@H](C)C2 [Compound 2.190],very good herbicidal action,very good herbicidal action
CCOC(C)=Nc1nc(N[C@H]2c3cc(C)ccc3C[C@H]2C)nc(C(F)F)n1 [Compound 2.191],very good herbicidal action,very good herbicidal action
C[C@@H](F)c1nc(C=O)nc(N[C@@H]2CCCc3ccccc32)n1 [Compound 2.193],very good herbicidal action,very good herbicidal action
Cc1ccc2c(c1)[C@H](Nc1ncnc(C=O)n1)[C@H](C)C2 [Compound 2.194],very good herbicidal action,very good herbicidal action
Cc1ccc2c(c1)[C@H](Nc1nc(C=O)nc([C@@H](C)F)n1)[C@H](C)C2 [Compound 2.195],very good herbicidal action,very good herbicidal action
